# Laboratory results as given in PMC12040169 (PLOS Biology, 2025).
# Test: in vitro
# Conditions: human, hela cells, % viability
row,Compound,"viability at 28.5 h, 10 µM [%]"
1,COc1ccc(C2=NNC(=O)c3cc4sccc4n3C2)cc1 [CBK284205],93.1
2,O=C(c1nccs1)C1CCN(C(=O)C2(c3ccccc3)CC2)CC1 [CBK284206],97.4
3,O=C(c1nccs1)C1CCN(C(=O)Cc2cccc(F)c2)CC1 [CBK284208],94.6
4,CN(C)C(=O)CN1N=C(C(C)(C)C)Cn2c(cc3ccccc32)C1=O [CBK284210],81.8
5,O=C(C1CC1)N1CCC(n2nc(-c3cccs3)ccc2=O)CC1 [CBK284213],94.7
6,OC1(c2ccc(F)cc2)COC2(CCNCC2)C1 (stereo not shown) [CBK284214],93.6
7,CCn1c2cc(C)oc2c2cnn(CC(=O)N3CCCC3)c(=O)c21 [CBK284215],101
8,O=c1ccc(-c2ccc(F)cc2)nn1CC1CCNCC1 [CBK284216],86.5
9,Cc1cc2c(o1)c1cnn(CC(=O)N3CCCCC3)c(=O)c1n2C [CBK284217],90.5
10,Cc1cc2c(o1)c1cnn(CC(=O)N3CCCC(C)C3)c(=O)c1n2C (stereo not shown) [CBK284218],85
11,Cc1cc2c(o1)c1cnn(CC(=O)N3CCCCCC3)c(=O)c1n2C [CBK284219],81.2
12,CC1CNCCC1n1nc(-c2cccs2)ccc1=O (stereo not shown) [CBK284221],82.9
13,Cc1cc2c(o1)c1cnn(CC(=O)N3CCCC3)c(=O)c1n2C [CBK284223],100
14,CCn1c2cc(C)oc2c2cnn(CC(=O)N(C)C)c(=O)c21 [CBK284224],83.4
15,Cc1sc2nc(C3CC3)n(C3CCNCC3)c(=O)c2c1C [CBK284228],92.3
16,CCCc1nn(Cc2ccccn2)c(=O)c2cc3ccsc3n12 [CBK284229],61.1
17,CCn1c2cc(C)oc2c2cn[nH]c(=O)c21 [CBK284230],76.1
18,Cc1cc2c(s1)c1cnn(CC(=O)N(C)C)c(=O)c1n2C [CBK284231],99.5
19,Cc1cc2c(o1)c1cnn(CC(=O)N(C)C)c(=O)c1n2C(C)C [CBK284233],88.9
20,O=C(C1CC1)N1CCC(c2[nH]ncc2-c2ccncc2)CC1 [CBK284238],87.6
21,O=C(C1CCC1)N1CCC(n2nc(C3CC3)ccc2=O)CC1 [CBK284239],104
22,O=C(CC1CCCCC1)N1CCC(n2nc(C3CC3)ccc2=O)CC1 [CBK284241],88.6
23,O=C(Cc1cccs1)N1CCC(n2nc(C3CC3)ccc2=O)CC1 [CBK284243],78.6

row,Compound,"viability at 28.5 h, 10 µM [%]"
1,CC1CCCN(C(=O)Cn2ncn3c(cc4ccsc43)c2=O)C1 (stereo not shown) [CBK284245],84.5
2,Cc1cc2c(s1)c1cnn(CC(=O)NC3CC3)c(=O)c1n2C [CBK284246],90.5
3,Cc1cc2c(s1)c1cnn(CC(=O)OC(C)C)c(=O)c1n2C [CBK284247],102
4,Cc1noc(C)c1C(=O)N1CCN(Cc2ccco2)C[C@@H]1C(C)C [CBK284248],93.9
5,CCC(=O)N1CCC[C@H]1Cn1nc(-c2ccc(F)cc2)ccc1=O [CBK284253],81.1
6,Cc1cc(C(=O)N2CCN(Cc3ccco3)C[C@@H]2C(C)C)c(C)[nH]1 [CBK284254],88.2
7,O=C(NC[C@H]1CCCN(C(=O)c2cccs2)C1)c1ccco1 [CBK284261],94.6
8,COc1cccc(CN2CCN(C(=O)c3ccco3)[C@@H](C)C2)c1 [CBK284267],110
9,COc1ccc(NC(=O)[C@@H]2C=CCN2C(=O)C2CC2)cc1 [CBK284277],98.2
10,COc1cccc(C(=O)N2CC=C[C@H]2C(=O)NC2CC2)c1 [CBK284278],94.4
11,O=C(c1cccs1)N1CCC[C@H]1[C@H](O)c1nccs1 [CBK284285],92.1
12,O=C(c1ccco1)N1CCC[C@H]1[C@H](O)c1nccs1 [CBK284286],98.5
13,CCCC(=O)N1CCC[C@H]1Cn1nc(-c2ccc(F)cc2)ccc1=O [CBK284288],99.5
14,O=C(c1ccco1)N1CCC[C@H]1[C@H](O)c1nc2ccccc2s1 [CBK284290],99
15,O=C(NC1CC1)[C@@H]1C=CCN1S(=O)(=O)c1ccc(F)cc1 [CBK284294],92.5
16,CC[C@H](Cn1nc(-c2cccs2)ccc1=O)NC(=O)C1CCC1 [CBK284295],103
17,CCC(=O)N[C@H](CC)Cn1ncc2ccccc2c1=O [CBK284303],77.1
18,CC[C@H](Cn1ncc2ccccc2c1=O)NC(=O)C(C)(C)C [CBK284304],90.2
19,CCn1cc(C(=O)N2CCN(Cc3ccco3)C[C@@H]2C(C)C)cn1 [CBK284307],97.7
20,CC(C)(C)OC(=O)N1CCC[C@@H](C(=O)c2cccs2)C1 [CBK284310],82.1
21,COc1ccc(CNC(=O)[C@H]2C=CCN2C(=O)c2ccco2)cc1 [CBK284321],71.9
22,CC(C)[C@@H](N)Cn1nnc2ccccc21 [CBK284323],82.7
23,COc1ccc(C(=O)[C@H]2CCCN(C(=O)c3ccco3)C2)cc1 [CBK284327],99.7

row,Compound,"viability at 28.5 h, 10 µM [%]"
1,O=C(c1ccc(F)cc1)[C@H]1CCCN(C(=O)c2ccco2)C1 [CBK284328],80.7
2,O=C(c1ccccc1F)[C@H]1CCCN(C(=O)c2cc(C3CC3)n[nH]2)C1 [CBK284330],80
3,Cn1ccc(C(=O)N2CCC[C@H](C(=O)c3ccc(F)cc3)C2)n1 [CBK284333],88.3
4,Cc1noc(C)c1C(=O)N1CCC[C@H](C(=O)c2ccc(F)cc2)C1 [CBK284334],81.7
5,CC(C)C(=O)N[C@@H](C)Cn1nc(-c2cccs2)oc1=O [CBK284335],88.3
6,CC(C)CC(=O)N[C@@H](C)Cn1nc(-c2cccs2)oc1=O [CBK284336],82.4
7,C[C@@H](Cn1nc(-c2cccs2)oc1=O)NC(=O)C1CCCC1 [CBK284337],86.5
8,O=C(NC1CCCCC1)[C@@H]1C=CCN1C(=O)c1cccs1 [CBK284338],95.8
9,O=C1Nc2c(cnn2-c2ccc(Cl)cc2)C2=NCCN12 [CBK284341],93.1
10,Cc1ccc(-n2ncc3c2NC(=O)N2CCN=C32)cc1 [CBK284345],85.5
11,O=C(c1ccccc1F)N1CCC(n2c(=O)oc3ccccc32)CC1 [CBK284346],90.1
12,O=C(c1ccco1)N1CCC(n2c(=O)oc3ccccc32)CC1 [CBK284350],92.8
13,CC(C)NC(=O)C1CC2CCC1CC21NC(=O)c2ccccc2O1 (stereo not shown) [CBK284353],83.5
14,Cc1cc(C(=O)N2C[C@H]3CC[C@](O)(c4ccc(F)cc4)[C@H]3C2)on1 [CBK284354],92.4
15,O=C(c1cc(F)cc(F)c1)N1CCC(O)(c2cccnc2F)CC1 [CBK284361],92.7
16,O=C(Cc1cccc(F)c1)N1CCC(O)(c2cccnc2F)CC1 [CBK284362],90.5
17,Cc1cc(-c2cc(=O)n(Cc3ccc(F)cc3)nc2C2CC2)on1 [CBK284364],98.2
18,Cc1cc(-c2cc(=O)n(Cc3ccccc3)nc2C2CC2)on1 [CBK284365],86.2
19,OC1(c2cccnc2F)CCN(Cc2ccc(F)cc2F)CC1 [CBK284369],82.6
20,OC1(c2cccnc2F)CCN(Cc2ccc(F)c(F)c2)CC1 [CBK284370],90
21,OC1(c2cccnc2F)CCN(Cc2cc(F)ccc2F)CC1 [CBK284371],83.6
22,OC1(c2cccnc2F)CCN(Cc2cccc(F)c2)CC1 [CBK284373],85.5
23,CCn1cncc1CN1CC2CCCC(O)(c3ccc(C)cc3)C2C1 (stereo not shown) [CBK284374],90

row,Compound,"viability at 28.5 h, 10 µM [%]"
1,Cc1cc2ncc3c(n2n1)CC1CCC3N1Cc1ccc(F)c(F)c1 (stereo not shown) [CBK284378],90.9
2,Cc1cc2ncc3c(n2n1)CC1CCC3N1C(=O)CCc1ccco1 (stereo not shown) [CBK284380],78.2
3,CCC(=O)N1C2CCC1c1cnc3cc(-c4ccco4)nn3c1C2 (stereo not shown) [CBK284384],92.7
4,O=C(CN1C(=O)N2CCCN=C2c2ccc(Cl)cc21)N1CCCC1 [CBK284387],78.7
5,O=C(CN1C(=O)N2CCCN=C2c2ccc(Cl)cc21)NC1CC1 [CBK284388],89
6,CCCNC(=O)CN1C(=O)N2CCCN=C2c2ccc(Cl)cc21 [CBK284389],82.8
7,CC(C)NC(=O)CN1C(=O)N2CCCN=C2c2ccc(Cl)cc21 [CBK284390],96.5
8,O=C(CN1C(=O)N2CCCN=C2c2ccccc21)NC1CCCCC1 [CBK284396],88.8
9,O=C(CN1C(=O)N2CCCN=C2c2ccccc21)N1CCCCCC1 [CBK284399],96.4
10,CCOC(=O)CN1C(=O)N2CCCN=C2c2ccc(Cl)cc21 [CBK284401],77.8
11,COC(=O)CN1C(=O)N2CCCN=C2c2ccc(Cl)cc21 [CBK284402],89.8
12,CCCNC(=O)CN1C(=O)N2CCCN=C2c2ccccc21 [CBK284405],86
13,Cc1nc2c(c(=O)[nH]1)CC[C@@H]1CN(C(=O)c3cccs3)C[C@H]21 [CBK284406],88.7
14,Cc1nc2c(c(=O)[nH]1)CC[C@@H]1CN(C(=O)c3occ4ccccc34)C[C@H]21 [CBK284408],101
15,Cc1nc2c(c(=O)[nH]1)CC[C@@H]1CN(C(=O)c3ccccc3F)C[C@H]21 [CBK284410],92.7
16,Cc1cc2ncc3c(n2n1)CC1CCC3N1Cc1ccc(C)o1 (stereo not shown) [CBK284412],88.9
17,Cc1nc2c(c(=O)[nH]1)CC[C@@H]1CN(C(=O)Cc3cccc(F)c3)C[C@H]21 [CBK284413],80.4
18,Cc1cc2ncc3c(n2n1)CC1CCC3N1C(=O)c1cccs1 (stereo not shown) [CBK284415],103
19,Cc1ccc(-n2ncc3c2NC(=O)N2CCCN=C32)cc1 [CBK284416],110
20,Cc1nc2c(c(=O)[nH]1)CC[C@@H]1CN(C(=O)c3cc(F)cc(F)c3)C[C@H]21 [CBK284418],101
21,O=C(CN1C(=O)N2CCCN=C2c2ccccc21)N1CCCC1 [CBK284419],88.4
22,O=C(C1CCCC1)N1C2CCC1CC(O)(c1cccnc1F)C2 (stereo not shown) [CBK284421],88.4
